Experimental findings from US7872036B2, “3-triazolylphenyl sulfide derivative and insecticide, miticide and nematicide containing it as an active ingredient” (Kumiai Chemical Industry Co., Ltd., priority 2004, dated 2011) are described below.

For one assay, the system named is brown planthoppers. Nature of the assay: Insecticidal test on brown planthoppers. Type of assay: in vivo, Nilaparvata lugens. As to conditions: active ingredient 500 ppm, germinating rice immersed, 4th-instar larvae, 25° C., 6 days.
Assay [1] relates to two-spotted spider mites. Nature of the assay: Miticidal test on two-spotted spider mites (by soil drenching). Type of assay: in vivo, Tetranychus urticae. The arrangement: scale not given here. The following applies: active ingredient 100 ppm, 5 ml per 100 g soil, 25° C., 13 days. On the procedure: Wettable powders were prepared in accordance with Formulation Example 2 and diluted with water to an active ingredient concentration of 100 ppm. 100 g of the soil in cups with soybean seedlings which had been inoculated with imago two-spotted spider mites were drenched with 5 ml of the resulting solutions. The treated seedlings were placed in a […] chamber at 25° C. for 13 days, and the mite survivors were counted for calculation of the miticidal value by using Equation 2.

Assay [2] relates to two-spotted spider mites. The assay is described as follows: Miticidal test on two-spotted spider mites (by dipping). Type of assay: in vivo, Tetranychus urticae. The arrangement: scale not given here. As to conditions: dipping of soybean seedlings, active ingredient 500 ppm, 25° C., 13 days. Here is the method: Wettable powders were prepared in accordance with Formulation Example 2 and diluted with water to an active ingredient concentration of 500 ppm. Soybean seedlings which had been inoculated with imago two-spotted spider mites were dipped in the resulting solutions and dried in air. The treated seedlings were placed in a thermostatic chamber at 25° C. for 13 days, and the mite survivors were counted for calculation of the miticidal value by using Equation 2. The test was carried out by one series system.

For assay [3], the system named is southern root-knot nematodes. Nature of the assay: Nemastatic test on southern root-knot nematodes. The following applies: diluted solution 20 ppm mixed 1:1 with suspension of second stage larvae, 25° C., 5 days. Type of assay: in vivo, Meloidogyne sp. Here is the method:
Compounds of the present invention (5 parts) and Tween 20 (tradename for polyoxyethylene sorbitan monolaurate) (1 part) as a spreader were dissolved n N,N-dimethylformamide (94 parts) to prepare 5% emulsifiable concentrates of the compounds of the present invention. Distilled water was added to the emulsifiable concentrates to prepare diluted solutions having a concentration of the compounds of the present invention of 20 ppm. 0.5 ml of the diluted solutions and 0.5 ml of water suspensions containing 100 second stage larvae of southern root-knot nematodes were mixed, and the mixture were placed in a thermostatic chamber at 25° C. for 5 days, and the survivors were counted for calculation of the nemastatic degree by using Equation 3. The test was carried out by two series system.

Each structure is given as a SMILES string.

As for `Cc1cc(F)c(-n2nc(C(F)(F)F)nc2N(C)N)cc1[S+]([O-])CC(F)(F)F` (stereo not shown) [Compound 171], the “Insecticidal degree (%)” value in the assay on brown planthoppers was determined as 100%. Moreover, the Miticidal value with two-spotted spider mites [1] and with two-spotted spider mites [2] was 100 in each case. In addition, in assay [3], the “Nemastatic degree (%)” value was 100%.
